From patent US20240024216A1, “METHODS AND MATERIALS FOR TREATING HAIR LOSS” (The Penn State Research Foundation, priority 2021, published 2024)

Tested on: human foreskin primary keratinocytes
Assay: Keratinocyte scratch assay with 4-AP, NGF and NGF-antibody
Assay type: cell-based
Conditions: at 12 hours
Experimental: Keratinocytes (7×10^4 cells/well) with KC medium were seeded on collagen-I pre-coated 96-well ImageLock microplate for 6 hours. For the drug treatment cells were pretreated with 4-AP prior to coating for 16-18 hours. Next, the wound scratch was created using IncuCyte automated system. After scratches the cells washed with PBS and the respective cells medium was added with individual 1 mM of 4-AP and 200 ng/ml of NGF (MyBioSource, Inc., Catlog No. MBS7114974) in keratinocytes medium and combination of 1 mM of 4-AP & 200 ng/mL NGF with or without 10 μg/ml of NGF-antibody (ThermoFisher Scientific, Catlog No. MA5-32067). The plate was incubated in Incucyte automated imaging system, wound healing and cells migration imaged for every hour until 24 hour and analyzed for percent of closure as described above procedure.

## NGF: nerve growth factor (NGF), MyBioSource, used at 200 ng/ml in keratinocyte scratch assay
56% in control cultures, 1 mM 4-AP, 200 ng/ml NGF
  scratch closure: 75%
Plus 10 μg/ml NGF-antibody
  scratch closure with NGF-neutralizing antibody: 67%
